Measurements taken from patent US10406134B2, “Methods of treating an overweight subject” (Zafgen, Inc., priority 2010, dated 2019).

Columns and labels:
[1] = 7-day oral weight loss study in diet-induced obese mice; type: in vivo, C57BL/6NTac mice; conditions: DIO mice; for weight change over the course of the study: 1.0 mg/kg oral once a day for 7 days
Procedure: A weight loss study was conducted in obese mice. The mice in this study were not genetically obese, but prior to and during the study, obesity was induced by a high-fat diet. Twelve week-old C57BL/6NTac mice, maintained on a 60% fat diet prior to and during the study, were separated into seven groups, eight animals per group. Average body weight of the mice was approximately 47 g at the start of the study.
Each of six groups was orally administered 1.0 mg/kg of a compound ([…] compounds B. C, D, E, F and G as disclosed herein), in 10% gelucire in deoinised water. Each of these six groups was administered a different compound. One group was orally administered fumagillin at 1.0 mg/kg (group 201) in 10% gelucire in deoinised water, and one group was administered 10% gelucire in deoinised water (vehicle). Mice received administrations once a day for 7 days.
(Data analyzed by ANCOVA with body weight on Day 1 as covariate followed by multiple tests against vehicle group: *p<0.05; **p<0.01, ***p<0.001.)
A weight loss study was conducted in obese mice, similar to Example 5. Twelve week-old C57BL/6NTac mice, maintained on a 60% fat diet prior to and during the study, were separated into seven groups, eight animals per group. Average body weight of the mice was approximately 47 g at the start of the study.
The group was orally administered […] of a compound H, in 10% gelucire in deoinised water. Mice received administrations once a day for 7 days. After 7 days, the average weight loss of the mice was 13.2%.

[2] = tested on: TXN in 293T cells; test: FLAG-tagged TXN expression in transfected 293T cells (gel); type: cell-based; conditions: 293T cells transfected with FLAG-tagged TXN
Procedure: (§1) EC50 of fumagillin to increase TXN levels is <10 nM.

[3] = 250-day diet admixture in C57BL/6 mice conditioned on a high fat diet; type: in vivo
Procedure: (§2) Oral administration of the MetAP2 inhibitor fumagillin causes an increase in circulating ketone bodies, as measured by concentration of beta hydroxybutyrate, which indicates an increase in the breakdown of stored fat.
In addition to showing an increase in beta hydroxybutyrate concentration, C57BL/6 mice conditioned on a high fat diet and treated with fumagillin (ZGN-201) as a diet admixture (1 mg/kg daily for 250 days) also experienced a reduction in body fat by approximately 40 percent (FIG. 6). Once attaining the maximum weight reduction, mice treated daily with 1 mg/kg fumagillin maintained a weight that was 25% less than that of age-matched mice maintained on normal mouse chow diet (lean mice, FIG. 6) for the duration of the experiment.
Adipose tissue in mice fed a high-fat diet show distinctive crown-like structures not seen in lean mice. These crown-like structures were also absent from the adipose tissue of fumagillin-treated mice.

[4] = tested on: Thioredoxin-1 (TXN) in B16F10 cells; test: N-terminal chymotryptic fragments of TXN measured by LC/MS in B16F10 cells treated with fumagillin; type: cell-based
Procedure: B16F10 cells were treated with increasing concentrations of fumagillin. N-terminal chymotryptic fragments of TXN were measured by liquid chromatography/mass spectrometry (LC/MS). […] The EC50 of fumagillin to increase Met-TXN acetylated Met-TXN levels is <10 nM.

[5] = 28-day oral gavage in high fat diet C57BL/6 mice, fat and lean tissue change; type: in vivo; conditions: 0.1 or 0.3 mg/kg oral gavage, 28 days
Procedure: C57BL/6 mice were conditioned on a low-fat diet (LF), a high fat diet (HF), or a high-fat diet and treated with fumagillin (ZGN-201) administered by oral gavage at doses of 0.1 or 0.3 mg/kg for 28 days. […] To determine whether the weight loss resulted from loss of fat or loss of lean tissue, the percentage change in fat tissue and lean tissue was determined for LF mice, HF mice, HF mice treated with 0.1 mg/kg fumagillin, and HF mice treated with 0.3 mg/kg fumagillin.
Upon histological examination, the studies of treated obese mice show no effect on growth of new blood vessels in growing fat depots and no effect on blood vessel size or density when compared to animals in which weight loss has been induced by simple energy (food) restriction.

[6] = 10-day oral gavage in C57BL/6 mice conditioned on a high fat diet; type: in vivo; conditions: 0.3 or 3 mg/kg daily oral gavage, 10 days
Text: as §2

[7] = 14-day treatment of high fat diet-fed C57BL/6 mice, body weight and food intake; type: in vivo; conditions: 1 mg/kg
Procedure: High fat diet-fed C57BL/6 mice were treated with 1 mg/kg of the MetAP2 inhibitor fumagillin (ZGN-201, squares) or vehicle (diamonds) for 14 days (FIG. 10). Body weights (left panel) were determined daily, while food intake (right panel) was assessed every other day by measuring the food consumed by each cage of three mice over the two day period. Data shown in FIG. 10 are means±SEM, n=9 animals. […] First, during the initial two to three days of treatment, no overt changes in food intake or body weight are observed. During this time period key changes in MetAP2 substrates occur, including glyceraldehyde-3-phosphate dehydrogenase and thioredoxin (data not shown). Second, the animals enter a period of rapid weight loss that proceeds until essentially all excess fat deposits are consumed. During this second period, fat oxidation is enhanced and food intake is inhibited.
Weight loss following treatment with therapeutically relevant doses of MetAP2 inhibitors stops once animals attain a normal body composition. […] This third phase can be maintained indefinitely provided the drug is continued (see FIG. 10), or presumably can be maintained in practice through other complementary pharmacologic, dietary, or lifestyle interventions.

[8] = Oral glucose tolerance test (OGTT) in overweight dogs; type: in vivo
Procedure: (§3) The effects of an 8 week treatment with ZGN-201 (ZGN) on body weight and metabolic parameters in 6 overweight dogs (3 HFF and 3 chow-fed (OWC)) were evaluated. The study was comprised of three phases—pretreatment (PT: 4 weeks), treatment (ZGNTx: 8 weeks), and washout (WO: 4 weeks). FI, BW, blood chemistry and hematology, beta-hydroxybutyrate (BHB), and glycerol were assessed weekly. Oral glucose tolerance tests (OGTT, 0.9 g/kg initial BW) were performed at the end of PT, ZGNTx, and WO.

[9] = tested on: TXN in Cos-1 cells; test: FLAG-tagged TXN expression in transfected Cos-1 cells (gel); type: cell-based
Procedure: as §1

[10] = 8 week oral treatment in overweight dogs, body weight and metabolic parameters; type: in vivo
Procedure: as §3, with “The study was comprised of three phases—pretreatment (PT: 4 weeks), treatment (ZGNTx: 8 weeks), and washout (WO: 4 weeks).” left out

[11] = diet admixture 1 mg/kg daily, 250 days
[12] = High-fat high fructose dogs, WO
[13] = High-fat high fructose dogs, ZGNTx

## CO[C@@H]1[C@H](OC(=O)NCCC2CCCN2C)CC[C@]2(CO2)[C@H]1[C@@]1(C)O[C@@H]1CC=C(C)C (some centres unmarked) [C]
[1]
  weight change over the course of the study: lost weight

## CCN(CC)C/C=C\c1ccccc1S(=O)(=O)Nc1ccc2c(c1C(=O)O)CCCC2 [H]
[1]; 100.0 mg/kg oral once a day, after 7 days
  average weight loss: 13.2%

## CO[C@@H]1[C@H](OC(=O)N[C@@H](C(N)=O)C(C)C)CC[C@]2(CO2)[C@H]1[C@@]1(C)O[C@@H]1CC=C(C)C [B]
[1]
  weight change over the course of the study: lost weight

## CO[C@@H]1[C@H](OC(=O)/C=C/C=C/C=C/C=C/C(=O)O)CC[C@]2(CO2)[C@H]1[C@@]1(C)O[C@@H]1CC=C(C)C [fumagillin]
[2]
  expression of TXN: significantly increased
[3]; 1 mg/kg daily, 250 days
  retroperitoneal fat pad weight: more similar to that of age-matched lean mice
  size and appearance of epididymal fat, peri-renal fat and liver: more similar to that of age-matched lean mice
[3]; 1 mg/kg daily, after maximum weight reduction
  maintained weight less than that of age-matched lean mice on normal chow: 25%
[3]; 1 mg/kg, high fat diet mice
  fasted glucose and insulin levels, insulin-glucose product: more similar to that of age-matched lean mice
[3]; [11]
  hydroxybutyrate concentration at longer time points: Increased hydroxybutyrate concentration persisted
  reduction in body fat: approximately 40%
[3]; high fat diet mice
  adipocyte size: more similar to that of age-matched lean mice
  crown-like structures in adipose tissue: absent
[3]; mice on a high fat diet
  sensitivity to insulin: normalizes sensitivity to insulin
[4]; Mus musculus, B16-F10, read-out: EC50 to increase Met-TXN acetylated Met-TXN levels
  EC50: < 10 nM
[4]; increasing concentrations
  accumulation of N-acetyl TXN(1-4): significant accumulation
  cellular level of TXN containing an intact N-terminal methionine [TXN(1-4)]: significantly increased
[5]
  body weight: reduction in body weight down to the level of low fat fed mice
[5]; HF mice
  reduction in fat: 40-50%
  reduction in lean tissue: 5-10%
[6]
  beta hydroxybutyrate concentrations: increase
  free fatty acid concentration: without an increase
[7]; 14 days, second phase
  food intake during period of rapid weight loss: inhibited
[7]; third phase
  food intake after weight loss reaches a nadir: returns to normal levels
[8]; end of 8 week treatment, OGTT
  reduction in insulin secretion (C-peptide AUC): 32%
[8]; end of 8 week treatment, OGTT 0.9 g/kg
  reversal of the abnormality in the plasma glucose excursion during the OGTT: 75%
[8]; end of washout, OGTT
  improvement in plasma glucose after the drug was washed out: completely reversed
[9]; Chlorocebus aethiops, FIG. 4 gel, cell line (Cos-1 or 293T) not specified, read-out: EC50 to increase TXN levels
  EC50: < 10 nM
[9]; Cos-1 cells transfected with FLAG-tagged TXN
  expression of TXN: significantly increased
[10]; HFF dogs
  reduction of FI: 29%
[10]; HFF dogs, daily oral, 8 weeks
  loss of body weight: approximately 8%
  loss of excess BW: 81%
[10]; HFF dogs, eight to ten weeks following discontinuation
  weight loss sustained after discontinuation of treatment: approximately one half of the initial weight loss was sustained
[10]; [12]
  BHB: 39 ± 7 µM
  FI: 1657 ± 147 kcal/day
  Glycerol: 66 ± 25 µM
[10]; High-fat high fructose dogs, WO (4 weeks washout)
  BW: 31.7 ± 2.9 kg
[10]; [13]
  BHB: 76 ± 9 µM
  FI: 1187 ± 258 kcal/day
  Glycerol: 131 ± 54 µM
[10]; High-fat high fructose dogs, ZGNTx (8 weeks treatment)
  BW: 30.8 ± 3.4 kg
[10]; OWC dogs
  reduction of FI: 9%
[10]; OWC dogs, daily oral, 8 weeks
  weight gain: inhibited weight gain
[10]; Overweight chow dogs, WO
  BHB: 44 ± 5 µM
  BW: 18.6 ± 0.7 kg
  FI: 1116 ± 22 kcal/day
  Glycerol: 86 ± 33 µM
[10]; Overweight chow dogs, ZGNTx
  BHB: 48 ± 11 µM
  BW: 17.8 ± 0.5 kg
  FI: 1255 ± 64 kcal/day
  Glycerol: 143 ± 26 µM
[10]; overweight dogs, treatment
  BHB levels: increased in HFF only
  glycerol levels: increased
[1]
  weight change over the course of the study: lost the most weight
